Laboratory results published in patent publication US20240083857A1, “2-Methyl-Quinazolines” (Bayer Pharma Aktiengesellschaft, priority 2017, published 2024).
Read-outs that look alike come from different tables or passages of the source.

Experiments:
[1] = biological target: human SOS1 (nucleotide exchange of K-Ras^G12C) (Homo sapiens, UniProt Q07889); experiment: Biochemical assay 2: K-Ras^G12C activation assay by hSOS1 at high GTP concentration (HTRF); conditions: high GTP; for IC50: read-out: Assay 2 (KRAS-Activation by SOS high GTP) activity expressed as IC50
[2] = biological target: Epidermal Growth Factor Receptor (EGFR) (Homo sapiens (Human), UniProt P00533); experiment: EGFR kinase assay (TR-FRET); type: biochemical; conditions: read-out: EGFR kinase inhibition IC50
Procedure, shortened: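 Read-out is the 665/620 nm HTRF ratio, from a Tb-cryptate anti-phosphotyrosine antibody and streptavidin-XL665 bound to phosphorylated biotin-peptide substrate. The enzyme, A431-derived EGFR (~3 U/ml), was given 15 min compound pre-binding at 22° C in Hepes pH 7.0 with Mg2+/Mn2+ before reaction.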

Epidermal Growth Factor Receptor (EGFR), sequence (P00533 25-1210): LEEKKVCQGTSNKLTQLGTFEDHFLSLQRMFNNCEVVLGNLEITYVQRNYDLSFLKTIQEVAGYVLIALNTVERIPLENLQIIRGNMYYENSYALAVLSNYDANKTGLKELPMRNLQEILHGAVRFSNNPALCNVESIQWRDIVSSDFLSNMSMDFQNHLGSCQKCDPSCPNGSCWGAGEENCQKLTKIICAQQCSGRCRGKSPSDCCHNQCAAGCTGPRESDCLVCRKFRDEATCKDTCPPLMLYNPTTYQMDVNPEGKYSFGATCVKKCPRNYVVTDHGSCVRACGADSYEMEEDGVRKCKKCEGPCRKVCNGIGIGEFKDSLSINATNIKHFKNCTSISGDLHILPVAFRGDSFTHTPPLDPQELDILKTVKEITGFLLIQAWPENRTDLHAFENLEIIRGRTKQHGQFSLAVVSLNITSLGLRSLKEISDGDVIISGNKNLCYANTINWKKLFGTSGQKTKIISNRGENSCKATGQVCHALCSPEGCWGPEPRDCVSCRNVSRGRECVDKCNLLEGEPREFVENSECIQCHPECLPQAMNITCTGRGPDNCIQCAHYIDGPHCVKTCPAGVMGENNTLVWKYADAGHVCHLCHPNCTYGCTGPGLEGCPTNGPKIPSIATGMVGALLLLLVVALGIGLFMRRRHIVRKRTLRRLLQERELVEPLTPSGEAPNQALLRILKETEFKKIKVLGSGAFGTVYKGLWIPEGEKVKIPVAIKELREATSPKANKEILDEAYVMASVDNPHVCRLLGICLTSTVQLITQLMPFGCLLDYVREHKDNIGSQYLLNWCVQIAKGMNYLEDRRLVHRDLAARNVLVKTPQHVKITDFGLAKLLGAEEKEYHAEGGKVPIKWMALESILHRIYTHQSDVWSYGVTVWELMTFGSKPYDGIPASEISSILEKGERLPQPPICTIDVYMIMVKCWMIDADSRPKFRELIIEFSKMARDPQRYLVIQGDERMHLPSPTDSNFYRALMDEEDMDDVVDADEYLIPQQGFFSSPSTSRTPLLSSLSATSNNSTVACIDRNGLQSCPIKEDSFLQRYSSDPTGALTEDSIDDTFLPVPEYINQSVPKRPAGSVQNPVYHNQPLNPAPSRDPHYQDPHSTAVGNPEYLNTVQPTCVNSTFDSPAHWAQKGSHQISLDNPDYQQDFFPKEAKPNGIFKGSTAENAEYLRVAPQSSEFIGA

| Compound | IC50 [1] | IC50 ([2]; unit inferred) | IC50 ([2]; values given in μM) | inhibition at 20 µM ([1]; read-out: Assay 2 (KRAS-Activation by SOS high GTP) activity expressed as % inhibition at 20 μM, at 20 μM) |
| --- | --- | --- | --- | --- |
| COc1cc2nc(C)nc(NC(C)c3cccc(Oc4ccccc4)c3)c2cc1OC (single isomer, unassigned; enantiomer 1) [Example 228, 6,7-dimethoxy-2-methyl-N-[1-(3-phenoxyphenyl)ethyl]quinazolin-4-amine, Enantiomer 1] | 647 nM | 0.341 µM |  |  |
| COc1cc2nc(C)nc(NC(C)c3cccc4cccnc34)c2cc1OC (single isomer, unassigned; enantiomer 1) [Example 230, 6,7-dimethoxy-2-methyl-N-[1-(quinolin-8-yl)ethyl]quinazolin-4-amine, Enantiomer 1] | 6690 nM |  | > 20 µM |  |
| COc1cc2nc(C)nc(N[C@H](C)c3cccc(Cl)c3)c2cc1OC [Example 2, N-[(1R)-1-(3-chlorophenyl)ethyl]-6,7-dimethoxy-2-methylquinazolin-4-amine] | 207 nM | 16.3 µM |  |  |
| COC(=O)c1cc2c(C(C)Nc3nc(C)nc4cc(OC)c(OC)cc34)cccc2s1 (stereo not shown) [Example 3, methyl 4-{1-[(6,7-dimethoxy-2-methylquinazolin-4-yl)amino]ethyl}-1-benzothiophene-2-carboxylate] | 115 nM |  | > 20 µM |  |
| COc1cc2nc(C)nc(NC(C)c3cccc4ccoc34)c2cc1OC (stereo not shown) [Example 4, N-[1-(1-benzofuran-7-yl)ethyl]-6,7-dimethoxy-2-methylquinazolin-4-amine] | 243 nM |  | > 20 µM |  |
| COc1cc2nc(C)nc(NC(C)c3ccc(F)c4[nH]ncc34)c2cc1OC (stereo not shown) [Example 5, N-[1-(7-fluoro-1H-indazol-4-yl)ethyl]-6,7-dimethoxy-2-methylquinazolin-4-amine] | 1300 nM |  | > 20 µM |  |
| COc1cc2nc(C)nc(NC(C)c3cc(F)cc4[nH]ncc34)c2cc1OC (stereo not shown) [Example 6, N-[1-(6-fluoro-1H-indazol-4-yl)ethyl]-6,7-dimethoxy-2-methylquinazolin-4-amine] | 1860 nM |  | > 20 µM |  |
| COc1cc2nc(C)nc(NC(C)c3cccc4cn(C)nc34)c2cc1OC (stereo not shown) [Example 8, 6,7-dimethoxy-2-methyl-N-[1-(2-methyl-2H-indazol-7-yl)ethyl]quinazolin-4-amine] | 19800 nM |  | > 20 µM |  |
| COc1cc2nc(C)nc(NC(C)c3cccc4nn(C)cc34)c2cc1OC (stereo not shown) [Example 9, 6,7-dimethoxy-2-methyl-N-[1-(2-methyl-2H-indazol-4-yl)ethyl]quinazolin-4-amine] | 1370 nM |  | > 20 µM |  |
| COc1cc2nc(C)nc(NC(C)c3cccc4cnn(C)c34)c2cc1OC (stereo not shown) [Example 10, 6,7-dimethoxy-2-methyl-N-[1-(1-methyl-1H-indazol-7-yl)ethyl]quinazolin-4-amine] | 1270 nM |  | > 20 µM |  |
| COc1cc2nc(C)nc(NC(C)c3cccc4c3CCCC4)c2cc1OC (stereo not shown) [Example 11, 6,7-dimethoxy-2-methyl-N-[1-(5,6,7,8-tetrahydronaphthalen-1-yl)ethyl]quinazolin-4-amine] | 221 nM |  | > 20 µM |  |
| COc1cc2nc(C)nc(N[C@H](C)c3ccc(F)cc3)c2cc1OC [Example 12, N-[(1R)-1-(4-fluorophenyl)ethyl]-6,7-dimethoxy-2-methylquinazolin-4-amine] | 578 nM |  | > 20 µM |  |
| COc1cc2nc(C)nc(NC(C)c3cccc4[nH]nc(C)c34)c2cc1OC (stereo not shown) [Example 13, 6,7-dimethoxy-2-methyl-N-[1-(3-methyl-1H-indazol-4-yl)ethyl]quinazolin-4-amine] | 2650 nM |  | > 20 µM |  |
| COc1cc2nc(C)nc(NC(C)c3cc4cccc(O)c4o3)c2cc1OC (stereo not shown) [Example 28, 2-{-[(6,7-dimethoxy-2-methyquinazolin-4-yl)amino]ethyl}-1-benzofuran-7-ol] |  |  | > 20 µM | 8% |
| COC(=O)c1ccccc1-c1ccc(C(C)Nc2nc(C)nc3cc(OC)c(OC)cc23)s1 (stereo not shown) [Example 178, methyl 2-(5-{1-[(6,7-dimethoxy-2-methylquinazolin-4-yl)amino]ethyl}thiophen-2-yl)benzoate] | 5110 nM |  | > 20 µM |  |
| COc1cc2nc(C)nc(NC(C)c3ccc(-c4ccccc4CN4CCC(C(N)=O)CC4)s3)c2cc1OC (stereo not shown) [Example 179, 1-[2-(5-{1-[(6,7-dimethoxy-2-methylquinazolin-4-yl)amino]ethyl}thiophen-2-yl)benzyl]piperidine-4-carboxamide] | 245 nM |  | > 20 µM |  |
| COc1cc2nc(C)nc(NC(C)c3ccc(-c4ccccc4CCO)s3)c2cc1OC (stereo not shown) [Example 180, 2-[2-(5-{1-[(6,7-dimethoxy-2-methylquinazolin-4-yl)amino]ethyl}thiophen-2-yl)phenyl]ethanol] | 921 nM |  | > 20 µM |  |
| COc1cc2nc(C)nc(NC(C)c3ccc(-c4cccc(CCO)c4)s3)c2cc1OC (stereo not shown) [Example 181, 2-[3-(5-{1-[(6,7-dimethoxy-2-methylquinazolin-4-yl)amino]ethyl}thiophen-2-yl)phenyl]ethanol] | 6510 nM |  | > 20 µM |  |

| Compound | IC50 [1] | IC50 ([2]; unit inferred) | IC50 ([2]; values given in μM) | inhibition at 20 µM ([1]; read-out: Assay 2 (KRAS-Activation by SOS high GTP) activity expressed as % inhibition at 20 μM, at 20 μM) |
| --- | --- | --- | --- | --- |
| COc1cc2nc(C)nc(NC(C)c3ccc(-c4ccccc4CN4CC5(COC5)C4)s3)c2cc1OC (stereo not shown) [Example 182, 6,7-di methoxy-2-methyl-N-[1-{5-[2-(2-oxa-6-azaspiro[3.3]hept-6-ylmethyl)phenyl]thiophen-2-yl}ethyl]quinazolin-4-amine] | 123 nM |  | > 20 µM |  |
| COc1cc2nc(C)nc(NC(C)c3cc(C)c(Br)s3)c2cc1OC (stereo not shown) [Example 183, N-[1-(5-bromo-4-methylthiophen-2-yl)ethyl]-6,7-dimethoxy-2-methylquinazolin-4-amine] | 4200 nM |  | > 20 µM |  |
| COc1cc2nc(C)nc(NC(C)c3ccc(-c4ccccc4CN4CCCC4)s3)c2cc1OC (stereo not shown) [Example 184, 6,7-dimethoxy-2-methyl-N-[1-{5-[2-(pyrrolidin-1-ylmethyl)phenyl]thiophen-2-yl}ethyl]quinazolin-4-amine] | 106 nM |  | > 20 µM |  |
| COc1cc2nc(C)nc(NC(C)c3ccc(-c4ccccc4CN4CCC[C@H]4CN(C)C)s3)c2cc1OC (stereo partly drawn) [Example 185, N-[1-{5-[2-({(2S)-[(dimethylamino)methyl]pyrrolidin-1-yl}methyl)phenyl]thiophen-2-yl}ethyl]-6,7-dimethoxy-2-methylquinazolin-4-amine] | 344 nM |  | > 20 µM |  |
| Cc1nc(N[C@H](C)c2cccc3ccccc23)c2ccccc2n1 [Example 186, 2-methyl-N-[(1R)-1-(naphthalen-1-yl)ethyl]quinazolin-4-amine] | 3310 nM |  | > 20 µM |  |
| COc1cc2nc(C)nc(N[C@H](C)c3ccc(Br)cc3)c2cc1OC [Example 187, N-[(1R)-1-(4-bromophenyl)ethyl]-6,7-dimethoxy-2-methylquinazolin-4-amine] | 562 nM |  | > 20 µM |  |
| COc1cc2nc(C)nc(N[C@H](C)c3ccc(S(C)(=O)=O)cc3)c2cc1OC [Example 188, 6,7-dimethoxy-2-methyl-N-{(1R)-1-[4-(methylsulfonyl)phenyl]ethyl}quinazolin-4-amine] | 16700 nM |  | > 20 µM |  |
| COc1cc2nc(C)nc(N[C@H](C)c3cccc(C)c3)c2cc1OC [Example 190, 6,7-dimethoxy-2-methyl-N-[(1R)-1-(3-methylphenyl)ethyl]quinazolin-4-amine] | 153 nM |  | > 20 µM |  |
| COc1cc2nc(C)nc(N[C@H](C)c3cccc(Br)c3)c2cc1OC [Example 191, N-[(1R)-1-(3-bromophenyl)ethyl]-6,7-dimethoxy-2-methylquinazolin-4-amine] | 245 nM |  | > 20 µM |  |
| COc1cc2nc(C)nc(N[C@H](C)c3ccc(C(N)=O)cc3)c2cc1OC [Example 192, 4-{(1R)-1-[(6,7-dimethoxy-2-methylquinazolin-4-yl)amino]ethyl}benzamide] | 4090 nM |  | > 20 µM |  |
| COc1cc2nc(C)nc(N[C@H](C)c3cccc(-c4ccccc4)c3)c2cc1OC [Example 193, N-[(1R)-1-(biphenyl-3-yl)ethyl]-6,7-dimethoxy-2-methylquinazolin-4-amine] | 405 nM |  | > 20 µM |  |
| COc1cc2nc(C)nc(N[C@H](C)c3cccc(C#N)c3)c2cc1OC [Example 194, 3-{(1R)-1-[(6,7-dimethoxy-2-methylquinazolin-4-yl)amino]ethyl}benzonitrile] | 594 nM |  | > 20 µM |  |
| COc1cc2nc(C)nc(N[C@H](C)c3ccc(C)cc3)c2cc1OC [Example 195, 6,7-dimethoxy-2-methyl-N-[(1R)-1-(4-methylphenyl)ethyl]quinazolin-4-amine] | 635 nM |  | > 20 µM |  |
| COc1cc2nc(C)nc(N[C@H](C)c3ccc(-c4ccccc4)cc3)c2cc1OC [Example 196, N-[(1R)-1-(biphenyl-4-yl)ethyl]-6,7-dimethoxy-2-methylquinazolin-4-amine] | 1090 nM |  | > 20 µM |  |
| COc1cc2nc(C)nc(N[C@H](C)c3ccc(C4CC4)cc3)c2cc1OC [Example 197, N-[(1R)-1-(4-cyclopropylphenyl)ethyl]-6,7-dimethoxy-2-methylquinazolin-4-amine] | 303 nM |  | > 20 µM |  |
| COc1cc2nc(C)nc(N[C@H](C)c3cccc(S(C)(=O)=O)c3)c2cc1OC [Example 198, 6,7-dimethoxy-2-methyl-N-{(1R)-1-[3-(methylsulfonyl)phenyl]ethyl}quinazolin-4-amine] | 518 nM |  | > 20 µM |  |
| COc1cc2nc(C)nc(N[C@H](C)c3cccc(C(N)=O)c3)c2cc1OC [Example 199, 3-{(1R)-1-[(6,7-dimethoxy-2-methylquinazolin-4-yl)amino]ethyl}benzamide] | 1420 nM |  | > 20 µM |  |
